Values quoted from earlier work, collected in US9708371B2, “Treatments for gastrointestinal disorders” (Ironwood Pharmaceuticals, Inc., priority 2011, dated 2017).
Bridge positions count the residues as written; N and C are the ends. Peptide text beside a SMILES is read from it.

Conditions: therapeutic dose levels

In the case of `C[C@@H]1NC(=O)[C@@H]2CCCN2C(=O)[C@H](CC(N)=O)NC(=O)[C@@H]2CSSC[C@H](N)C(=O)N[C@H]3CSSC[C@H](NC1=O)C(=O)N[C@@H]([C@@H](C)O)C(=O)NCC(=O)N[C@H](C(=O)N[C@@H](Cc1ccc(O)cc1)C(=O)O)CSSC[C@H](NC(=O)[C@H](Cc1ccc(O)cc1)NC(=O)[C@H](CCC(=O)O)NC3=O)C(=O)N2` [Linaclotide, Cys Cys Glu Tyr Cys Cys Asn Pro Ala Cys Thr Gly Cys Tyr] (H-CCEYCCNPACTGCY-OH; disulfide 1-6, 2-10, 5-13 (inferred); N-terminus and C-terminus assumed), the “levels seen systemically after oral administration” value is listed as “no detectable levels”.
